Literature values, collected in US8853170B2, “Compositions comprising sugar-cysteine products” (Max International, LLC, priority 2010, dated 2014).

Experiments:
[1] = test system: acetaminophen hepatic and renal toxicity; details: mice, doses of 2 g/kg
[2] = test system: mice exposed to cyclophosphamide; details: 8 mmol/kg
[3] = test system: irradiation-induced bowel injury; details: mice, doses of 1 g/kg
glutathione levels = details: mice, 8 mmol/kg i.p.
ATP levels = details: dogs subjected to ischemia, about 3 g/day for at least 5 days
humans = details: ribose administered directly to humans
healthy humans = details: orally 8-10 g per day by an adult

SMILES	protection against acetaminophen hepatic and renal toxicity [1]	delivery of protective amounts of cysteine [2]	protection against irradiation-induced bowel injury [3]	increased glutathione levels, heart (glutathione levels; heart) [times]	increased glutathione levels, muscle tissue (glutathione levels; muscle tissue) [times]	ATP levels (ATP levels)	toxicity (humans)	exercise capacity (healthy humans)
O=C(O)[C@@H]1CSC(C(O)C(O)C(O)CO)N1 (stereo partly drawn) [RibCys, 2(R,S)-D-ribo-(1′,2′,3′,4′-tetrahydroxybutyl)thiazolidine-4(R)-carboxylic acid]	protect mice against acetaminophen hepatic and renal toxicity	deliver effective protective amounts of cysteine	protect mice against irradiation-induced bowel injury	1.5	2.5	–	–	–
O=C[C@H](O)[C@H](O)[C@H](O)CO [ribose]	–	–	–	–	–	effectively restored and maintained ATP levels	essentially non-toxic over wide dosage ranges	increase exercise capacity
